Data published in ChEMBL document CHEMBL3885861, “Open TG-GATES”.

Organism: Rattus norvegicus
Assay: Open TG-GATES - Regimen: Daily Repeat
Format: toxicity, organism-based, Sprague-Dawley
Set-up: regimen Daily Repeat, gender Male, age 6 weeks
Conditions: in vivo, po, 0 mg/kg, route gavage, dose level Control; for APTT / Bas / Eos / Fbg / Ht / Lym / MCH / MCHC / MCV / Mono / Neu / PT / Plat / RBC / Ret / WBC: tissue Blood; for KIDNEY_L / KIDNEY_R / KIDNEY_TOTAL: tissue Kidney; for LIVER: tissue Liver; for ALP / ALT / AST / BUN / CRE / Ca / Cl / DBIL / GLC / IP / K / LDH / Na / PL / RALB / TBIL / TC / TG / TP / gamma-GTP: tissue Plasma

Work on Cc1cccc(Nc2cc(Cl)nc(SCC(=O)O)n2)c1C [PIRINIXIC ACID] yielded a TERMINAL_BW (72 h, time 3 day) of 233.5 g, an APTT (72 h, time 3 day) of 16.4 s and a Bas (72 h, time 3 day) of 0%. The Eos (72 h, time 3 day) was 1.2%, the Fbg (72 h, time 3 day) was 285 mg/dL and the Ht (72 h, time 3 day) was 39.4%. The Lym (72 h, time 3 day) was 75.2%, the MCH (72 h, time 3 day) was 22.2 pg and the MCHC (72 h, time 3 day) was 34.4%. It also gave an MCV (72 h, time 3 day) of 64.7 fL, a Mono (72 h, time 3 day) of 2.8% and a Neu (72 h, time 3 day) of 20.2%. It also gave a PT (72 h, time 3 day) of 12.3 s, a Plat (72 h, time 3 day) of 109.1 x10_4/uL and an RBC (72 h, time 3 day) of 609.4 x10_4/ul. The Ret (72 h, time 3 day) was 7%, the WBC (72 h, time 3 day) was 85.4 x10_2/uL and the KIDNEY_L (72 h, time 3 day) was 1 g. The KIDNEY_R (72 h, time 3 day) was 1 g, the KIDNEY_TOTAL (72 h, time 3 day) was 1.9 g and the LIVER (72 h, time 3 day) was 10.9 g. For the same molecule, the ALP (72 h, time 3 day) was 1563.4 IU/L, the ALT (72 h, time 3 day) was 50 IU/L and the AST (72 h, time 3 day) was 77 IU/L. The BUN (72 h, time 3 day) was 15.8 mg/dL, the CRE (72 h, time 3 day) was 0.2 mg/dL and the Ca (72 h, time 3 day) was 10.8 mg/dL. The Cl (72 h, time 3 day) was 105.4 meq/L, the DBIL (72 h, time 3 day) was 0.024 mg/dL and the GLC (72 h, time 3 day) was 201.2 mg/dL. The IP (72 h, time 3 day) was 8.2 mg/dL, the K (72 h, time 3 day) was 3.8 meq/L and the LDH (72 h, time 3 day) was 80.4 IU/L. The Na (72 h, time 3 day) was 143 meq/L, the PL (72 h, time 3 day) was 155 mg/dL and the RALB (72 h, time 3 day) was 2.6 g/dL. For the same molecule, the TBIL (72 h, time 3 day) was 0.032 mg/dL, the TC (72 h, time 3 day) was 79.6 mg/dL and the TG (72 h, time 3 day) was 92.8 mg/dL. The TP (72 h, time 3 day) was 5.5 g/dL, the gamma-GTP (72 h, time 3 day) was 1.6 IU/L and the TERMINAL_BW ([…], time 7 day) was 265.8 g. For the same molecule, the TERMINAL_BW ([…], time 14 day) was 320.3 g, the TERMINAL_BW ([…], time 28 day) was 387.5 g and the APTT ([…], time 7 day) was 16.6 s. For the same molecule, the Bas ([…], time 7 day) was 0%, the Eos ([…], time 7 day) was 0.4% and the Fbg ([…], time 7 day) was 312.6 mg/dL. The Ht ([…], time 7 day) was 40.4%, the Lym ([…], time 7 day) was 83.4% and the MCH ([…], time 7 day) was 21.7 pg. It also gave an MCHC ([…], time 7 day) of 34.7%, an MCV ([…], time 7 day) of 62.3 fL and a Mono ([…], time 7 day) of 2.2%. For the same molecule, the Neu ([…], time 7 day) was 13.8%, the PT ([…], time 7 day) was 12.3 s and the Plat ([…], time 7 day) was 127.6 x10_4/uL. It also gave an RBC ([…], time 7 day) of 648.6 x10_4/ul, a Ret ([…], time 7 day) of 5.5% and a WBC ([…], time 7 day) of 89.6 x10_2/uL. The APTT ([…], time 14 day) was 15.5 s, the Bas ([…], time 14 day) was 0% and the Eos ([…], time 14 day) was 0.8%. For the same molecule, the Fbg ([…], time 14 day) was 324.2 mg/dL, the Ht ([…], time 14 day) was 41.1% and the Lym ([…], time 14 day) was 77.6%. The MCH ([…], time 14 day) was 20.2 pg, the MCHC ([…], time 14 day) was 35.2% and the MCV ([…], time 14 day) was 57.3 fL. The Mono ([…], time 14 day) was 2.4%, the Neu ([…], time 14 day) was 18.6% and the PT ([…], time 14 day) was 12.4 s. For the same molecule, the Plat ([…], time 14 day) was 119.6 x10_4/uL, the RBC ([…], time 14 day) was 716.8 x10_4/ul and the Ret ([…], time 14 day) was 4.1%. The WBC ([…], time 14 day) was 101.8 x10_2/uL, the APTT ([…], time 28 day) was 17.7 s and the Bas ([…], time 28 day) was 0%. For the same molecule, the Eos ([…], time 28 day) was 1.2%, the Fbg ([…], time 28 day) was 284.6 mg/dL and the Ht ([…], time 28 day) was 44.2%. The Lym ([…], time 28 day) was 75%, the MCH ([…], time 28 day) was 19.8 pg and the MCHC ([…], time 28 day) was 35.6%. It also gave an MCV ([…], time 28 day) of 55.5 fL, a Mono ([…], time 28 day) of 2.4% and a Neu ([…], time 28 day) of 20.6%. It also gave a PT ([…], time 28 day) of 12.3 s, a Plat ([…], time 28 day) of 100.6 x10_4/uL and an RBC ([…], time 28 day) of 796.8 x10_4/ul. For the same molecule, the Ret ([…], time 28 day) was 2.3%, the WBC ([…], time 28 day) was 82.2 x10_2/uL and the KIDNEY_L ([…], time 7 day) was 1.1 g. For the same molecule, the KIDNEY_R ([…], time 7 day) was 1 g, the KIDNEY_TOTAL ([…], time 7 day) was 2.1 g and the KIDNEY_L ([…], time 14 day) was 1.2 g. It also gave a KIDNEY_R ([…], time 14 day) of 1.2 g, a KIDNEY_TOTAL ([…], time 14 day) of 2.5 g and a KIDNEY_L ([…], time 28 day) of 1.4 g. It also gave a KIDNEY_R ([…], time 28 day) of 1.3 g, a KIDNEY_TOTAL ([…], time 28 day) of 2.7 g and an LIVER ([…], time 7 day) of 12.4 g. For the same molecule, the LIVER ([…], time 14 day) was 14.7 g, the LIVER ([…], time 28 day) was 15.5 g and the ALP ([…], time 7 day) was 1820.8 IU/L. The ALT ([…], time 7 day) was 48.8 IU/L, the AST ([…], time 7 day) was 67.6 IU/L and the BUN ([…], time 7 day) was 19.4 mg/dL. It also gave a CRE ([…], time 7 day) of 0.2 mg/dL, a Ca ([…], time 7 day) of 11 mg/dL and a Cl ([…], time 7 day) of 105 meq/L. For the same molecule, the DBIL ([…], time 7 day) was 0.02 mg/dL, the GLC ([…], time 7 day) was 205.6 mg/dL and the IP ([…], time 7 day) was 7.1 mg/dL. The K ([…], time 7 day) was 4 meq/L, the LDH ([…], time 7 day) was 80 IU/L and the Na ([…], time 7 day) was 142.4 meq/L. It also gave a PL ([…], time 7 day) of 164.2 mg/dL, an RALB ([…], time 7 day) of 2.7 g/dL and a TBIL ([…], time 7 day) of 0.036 mg/dL. The TC ([…], time 7 day) was 80.8 mg/dL, the TG ([…], time 7 day) was 128.4 mg/dL and the TP ([…], time 7 day) was 5.9 g/dL. It also gave a gamma-GTP ([…], time 7 day) of 1 IU/L, an ALP ([…], time 14 day) of 1141.6 IU/L and an ALT ([…], time 14 day) of 41.2 IU/L. It also gave an AST ([…], time 14 day) of 65.8 IU/L, a BUN ([…], time 14 day) of 16 mg/dL and a CRE ([…], time 14 day) of 0.2 mg/dL. It also gave a Ca ([…], time 14 day) of 10.6 mg/dL, a Cl ([…], time 14 day) of 105.2 meq/L and a DBIL ([…], time 14 day) of 0.016 mg/dL. It also gave a GLC ([…], time 14 day) of 202.4 mg/dL, an IP ([…], time 14 day) of 7.1 mg/dL and a K ([…], time 14 day) of 3.8 meq/L. The LDH ([…], time 14 day) was 78.8 IU/L, the Na ([…], time 14 day) was 143.4 meq/L and the PL ([…], time 14 day) was 139.6 mg/dL. It also gave an RALB ([…], time 14 day) of 2.8 g/dL, a TBIL ([…], time 14 day) of 0.03 mg/dL and a TC ([…], time 14 day) of 69 mg/dL. The TG ([…], time 14 day) was 117.4 mg/dL, the TP ([…], time 14 day) was 6 g/dL and the gamma-GTP ([…], time 14 day) was 1.2 IU/L. For the same molecule, the ALP ([…], time 28 day) was 955.2 IU/L, the ALT ([…], time 28 day) was 36.2 IU/L and the AST ([…], time 28 day) was 59.4 IU/L. For the same molecule, the BUN ([…], time 28 day) was 14 mg/dL, the CRE ([…], time 28 day) was 0.2 mg/dL and the Ca ([…], time 28 day) was 10.7 mg/dL. It also gave a Cl ([…], time 28 day) of 106.6 meq/L, a DBIL ([…], time 28 day) of 0.018 mg/dL and a GLC ([…], time 28 day) of 199 mg/dL. It also gave an IP ([…], time 28 day) of 6.5 mg/dL, a K ([…], time 28 day) of 3.5 meq/L and an LDH ([…], time 28 day) of 48.8 IU/L. It also gave a Na ([…], time 28 day) of 144.2 meq/L, a PL ([…], time 28 day) of 139.6 mg/dL and an RALB ([…], time 28 day) of 2.8 g/dL. It also gave a TBIL ([…], time 28 day) of 0.064 mg/dL, a TC ([…], time 28 day) of 75.8 mg/dL and a TG ([…], time 28 day) of 90.4 mg/dL. It also gave a TP ([…], time 28 day) of 6.4 g/dL.
